Test results published in patent US7754743B2, “Heteroarylcarbamoylbenzene derivatives” (Banyu Pharmaceutical Co., Ltd., priority 2003, dated 2010).
Like-named read-outs stand apart in the source and are kept apart here.

Target: T1, recombinant human liver GK (Homo sapiens, UniProt P35557)
T1 construct: made in house; host or cells: E. coli
T1 sequence (P35557 1-466 isoform P35557-2): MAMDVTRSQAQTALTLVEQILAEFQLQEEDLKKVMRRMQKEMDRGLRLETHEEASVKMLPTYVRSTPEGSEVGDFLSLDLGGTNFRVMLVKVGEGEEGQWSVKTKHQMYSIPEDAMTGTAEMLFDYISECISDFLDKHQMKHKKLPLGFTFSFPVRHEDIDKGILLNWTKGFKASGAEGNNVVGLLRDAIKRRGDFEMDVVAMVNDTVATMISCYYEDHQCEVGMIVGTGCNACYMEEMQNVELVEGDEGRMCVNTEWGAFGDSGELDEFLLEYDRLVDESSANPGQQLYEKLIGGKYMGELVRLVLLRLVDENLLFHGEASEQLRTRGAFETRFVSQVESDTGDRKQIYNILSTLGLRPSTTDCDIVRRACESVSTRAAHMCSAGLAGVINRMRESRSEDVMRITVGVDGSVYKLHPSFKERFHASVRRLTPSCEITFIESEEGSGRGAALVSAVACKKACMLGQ
Experiment: Glucokinase (GK) activation assay, G6PDH-coupled thio-NADH absorbance at 405 nm
Assay type: biochemical
Description: The glucokinase activity is the degree of activation of glucokinase, as determined not by direct measurement of glucose-6-phosphate, but by measurement of the amount of thio-NADH produced upon production of phosphogluconolactone from glucose-6-phosphate by the reporter enzyme glucose-6-phosphate dehydrogenase.
The recombinant human liver GK used in this assay was expressed in E. coli as FLAG fusion protein, and it was purified by […] M2 AFFINITY GEL (Sigma).
The assay was carried out using a flat-bottomed 96-well plate at 30° C. A 69 μl portion of assay buffer (25 mM Hepes Buffer: pH=7.2, 2 mM MgCl2, 1 mM ATP, 0.5 mM TNAD, 1 mM dithiothreitol) was dispensed, and either a DMSO solution of the compound or 1 μl of DMSO as a control was added. Next, 20 μl of an enzyme mixture (FLAG-GK, 20 U/ml G6PDH) precooled in ice bath was dispensed, and then 10 μl of 25 mM glucose was added as substrate and reaction was initiated (final glucose concentration=2.5 mM).
FLAG-GK was added to produce an absorbance increment of from 0.05 to 0.1 after 5 minutes in the presence of 1% DMSO.
The OD values were measured at each concentration of the evaluated compound, using the OD value of the DMSO control as 100%. The Emax (%) and EC50 (μM) values were calculated from the OD value at each concentration, and used as indices of the GK activating power of the compounds.

[1] = final glucose concentration 2.5 mM, 30° C.

Emax [%]	EC50 [1] [nM]	Emax (OD value of DMSO control as 100%, final glucose concentration 2.5 mM, 30° C., read-out: Emax(%)) [%]	Compound
957	250	–	Cc1csc(NC(=O)c2cc(Oc3ccc(S(C)(=O)=O)cc3)cc(OC(C)C)c2)n1 [Production Example 1, 5-isopropoxy-3-(4-methanesulfonylphenoxy)-N-(4-methylthiazol-2-yl)-benzamide]
–	530	936	COC(=O)NCc1ccc(Oc2cc(OC(C)C)cc(C(=O)Nc3nccs3)c2)cc1 [Production Example 59, 5-isopropoxy-3-(4-methoxycarbonylaminomethylphenoxy)-N-thiazol-2-yl-benzamide]
